Laboratory results: paper PMC12409781 (RSC Advances, 2025)

How the values were obtained:
Test in all cases: Cell viability assay
Assay type in all cases: cell-based
KPC = conditions: 72 h, read-out: IC50 KPC
Panc-1 = conditions: Homo sapiens, PANC-1, 72 h, read-out: IC50 Panc-1, 72 hours, CCK-8
MIA PaCa-2 = conditions: Homo sapiens, MIA PaCa-2, 72 h, read-out: IC50 MIA PaCa-2

Nc1ccn([C@@H]2O[C@H](CO)[C@@H](O)C2(F)F)c(=O)n1 [Gemcitabine]
IC50 (KPC): 5.36 ± 0.25 µM | IC50 (Panc-1): 11.6 ± 0.56 µM | IC50 (MIA PaCa-2): 7.83 ± 0.28 µM
